According to patent publication US20030138946A1:
Ends that are not written are not given here.

What was measured:
[1] = molecular target: T1, K^bsol (soluble H-2 K^b with murine β-2 microglobulin) (Mus musculus, UniProt P01901); format: binding
T1 construct: The cDNAs encoding K^b α1α2α3 domains (274 residues) and murine β-2 microglobulin (99 residues); made in house; host or cells: Drosophila S2/M3 cells, purified from culture supernatant
T1 sequence (P01901 22-295): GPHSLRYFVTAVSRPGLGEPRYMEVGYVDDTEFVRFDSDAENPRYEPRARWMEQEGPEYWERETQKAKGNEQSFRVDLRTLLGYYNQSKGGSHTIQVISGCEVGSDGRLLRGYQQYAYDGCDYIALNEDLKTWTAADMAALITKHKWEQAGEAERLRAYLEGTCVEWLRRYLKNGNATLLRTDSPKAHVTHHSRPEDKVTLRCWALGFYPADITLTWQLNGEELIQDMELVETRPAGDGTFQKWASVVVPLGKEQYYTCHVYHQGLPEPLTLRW
T1 sequence (P01887 21-119 partner): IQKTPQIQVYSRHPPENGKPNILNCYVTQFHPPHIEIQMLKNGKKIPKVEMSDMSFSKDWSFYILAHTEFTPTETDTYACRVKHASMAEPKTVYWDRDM

B3/CD8 T-cell hybridoma = test: Antigen presentation assay with B3/CD8 T-cell hybridoma (IL-2 via CTLL 3H thymidine); format: cell-based, murine; settings: peptide added to culture medium or protein osmotically loaded
Experimental: Osmotic loading of SC2 and 3T3 cells with ovalbumin protein was carried out as described by Moore, et al., Cell 54: 777-785 (1988). The assay procedure is as follows. In a 96-well dish, 1×10^5 Drosophila cells (with or without peptide/protein loaded) or 3T3 cells were cocultured with 1×10^5 B3/CD8 T-cell hybridoma cells in 200 μl of RPMI media supplemented with 10% fetal bovine serum. After 24 hours of incubation, 100 μl of the supernatant from these cultures was added to 100 μl of RPMI containing 5,000 CTLL cells. The cells were cocultured for 24 hours at 37° C. when 1 uCi of ^3H thymidine (Amersham) was added. After a further incubation of 15 hours at 37° C., the incorporation of radiolabel into the CTLL cells was determined by scintillation counting.
Assays conducted with murine MHC also verified that the insect cells are capable of loading peptide onto the Class I molecules. Cells expressing as few as 200-500 MHC molecules containing a particular antigen can be detected by a T-cell. […] Upon antigenic stimulation, B3/CD8 produces IL-2, measured by ^3H thymidine incorporation in IL-2-dependent T-cell line CTLL (Gillis, et al., J. Immunol. 120: 2027 91978)). Thus, by measuring the amount of IL-2 produced, one can assay for T-cell recognition. […]

Q: How did the “affinity lower than that of OVA-8” value [1] turn out when EQLESIINFEKLTEWTSSNVMEER [OVA-24] was run?
A: The value was “more than 10,000 fold”.

Q: And the “T-cell recognition (IL-2 response) of K^b Drosophila cells” value (B3/CD8 T-cell hybridoma)?
A: Its value is “responded well”.
